Measurements taken from patent publication US9024041B2, “P38 MAP kinase inhibitors” (Respivert Ltd., priority 2010, dated 2015).

What was measured:
[1] = tested on: Differentiated U937 cells; assay: MTT assay: cell viability on exposure to test compounds; assay type: cell-based, human; settings: percentage loss of cell viability vs vehicle, 1 μg/mL; for MTT Assay (Viability) 4 h d-U937: 5% FCS; for MTT Assay (Viability) 24 h d-U937: 10% FCS
Procedure: MTT Assay: Determination of Cell Viability on Exposure to Test Compounds
Differentiated U937 cells were pre-incubated with each test compound under two protocols: the first for 4 hr in 5% FCS and the second in 10% FCS for 24 h. The supernatant was replaced with 200 μL of new media and 10 μL of MTT stock solution (5 mg/mL) was added to each well. After incubation for 1 hr the media were removed, 200 μL of DMSO was added to each well and the plates were shaken lightly for 1 hr prior to reading the absorbance at 550 nm. The percentage loss of cell viability was calculated for each well relative to vehicle (0.5% DMSO) treatment. Consequently an apparent increase in cell viability for drug treatment relative to vehicle is tabulated as a negative percentage.

[2] = tested on: LPS-induced IL-8 release in d-U937 cells; assay: LPS-induced IL-8 release in d-U937 cells; assay type: cell-based; settings: Homo sapiens, dU937, 0.1 μg/mL LPS, 4 hr
Procedure: (§1) Cellular Potency as Determined by LPS-Induced TNFα/IL-8 Release in d-U937Cells
(§2) U937 cells, a human monocytic cell line, were differentiated to macrophage-type cells by incubation with phorbol myristate acetate (PMA; 100 ng/mL) for 48 to 72 hr. Cells were pre-incubated with final concentrations of test compound for 2 hr and were then stimulated with 0.1 μg/mL of LPS (from E. Coli: O111:B4, Sigma) for 4 hr. The supernatant was collected for determination of TNFα and IL-8 concentrations by sandwich ELISA (Duo-set, R&D systems). […] The relative 50% effective concentration (REC50) was determined from the resultant concentration-response curve. The inhibition of IL-8 production was calculated at each concentration of test compound by comparison with vehicle control. The 50% inhibitory concentration (IC50) was determined from the resultant concentration-response curve.

[3] = biological target: T1, p38 MAPKα isoform (MAPK14: Invitrogen) (Homo sapiens, UniProt Q16539); assay: p38 MAPKα enzyme inhibition assay (FRET, Z-LYTE, via MAPKAP-K2 activation); assay type: biochemical; settings: 2 hr pre-incubation, ATP 10.0 μM; read-out: Enzyme Inhibition IC50 p38α
T1 construct: purchased Invitrogen
T1 sequence (Q16539 whole entry, canonical isoform): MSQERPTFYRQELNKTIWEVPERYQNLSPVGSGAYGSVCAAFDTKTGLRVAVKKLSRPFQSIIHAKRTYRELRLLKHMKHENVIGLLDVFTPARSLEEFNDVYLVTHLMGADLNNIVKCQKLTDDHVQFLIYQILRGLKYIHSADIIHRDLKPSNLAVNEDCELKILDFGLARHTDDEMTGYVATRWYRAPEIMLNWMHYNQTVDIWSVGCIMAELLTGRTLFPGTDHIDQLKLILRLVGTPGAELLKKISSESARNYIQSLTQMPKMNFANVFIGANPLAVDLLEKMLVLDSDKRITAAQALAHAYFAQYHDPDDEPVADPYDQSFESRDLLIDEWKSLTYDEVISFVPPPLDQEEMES
Procedure: (§3) The enzyme inhibitory activities of compounds disclosed herein were determined by fluorescence resonance energy transfer (FRET) using synthetic peptides labelled with both donor and acceptor fluorophores (Z-LYTE, Invitrogen Ltd., Paisley, UK). Recombinant, phosphorylated p38 MAPKγ (MAPK12:Invitrogen) was diluted in HEPES buffer, mixed with the test compound at the desired final concentrations and incubated for 2 hr at RT. The FRET peptide (2 μM) and ATP (100 μM) were added to the enzyme/compound mixture and incubated for 1 hr. Development reagent (protease) was added for 1 hr prior to detection in a fluorescence microplate reader (Varioskan® Flash, ThermoFisher Scientific). The site-specific protease cleaves non-phosphorylated peptide only and eliminates the FRET signal. Phosphorylation levels of each reaction were calculated using the ratio of coumarin emission (donor) over fluorescein emission (acceptor) for which high ratios indicate high phosphorylation and low ratios indicate low phosphorylation levels.
For the p38 MAPKα isoform (MAPK14: Invitrogen), enzyme activity was evaluated indirectly by determining the level of activation/phosphorylation of the down-stream molecule, MAPKAP-K2. The p38 MAPKα protein was mixed with the test compound for 2 hr at RT. […] Development reagent was then added and the mixture incubated for 1 hr before detection by fluorescence completed the assay protocol.

[4] = tested on: Poly I:C-induced ICAM-1 expression in BEAS2B cells; assay: Poly I:C-induced ICAM-1 induction in BEAS2B cells; assay type: cell-based; settings: Homo sapiens, BEAS-2B, poly I:C 1 μg/mL, 18 hr, read-out: PolyI:C/ICAM1 IC50 BEAS2B
Procedure: Cellular Potency as Determined by Poly I:C-Induced ICAM-1 Induction in BEAS2B Cells
Poly I:C (1 μg/mL) (Invivogen Ltd., San Diego, Calif.) was transfected into BEAS2B cells (human bronchial epithelial cells, ATCC) with Oligofectamine (Invitrogen, Carlsbad, Calif.). Cells were pre-incubated with final concentrations of test compounds for 2 hr and the level of ICAM1 expression on the cell surface was determined by cell-based ELISA. At a time point 18 hr after poly I:C transfection, cells were fixed with 4% formaldehyde in PBS and then endogenous peroxidase was quenched by the addition of 0.1% sodium azide and 1% hydrogen peroxide. Cells were washed with wash-buffer (0.1% Tween in PBS: PBS-Tween). and after blocking the wells with 5% milk in PBS-Tween for 1 hr, the cells were incubated with anti-human ICAM-1 antibody (Cell Signaling Technology, Danvers, Mass.) in 1% BSA PBS overnight at 4° C. The cells were washed with PBS-Tween and incubated with the secondary antibody (HRP-conjugated anti-rabbit IgG, Dako Ltd., Glostrup, Denmark). The ICAM-1 signal was detected by adding substrate and reading the absorbance at 450 nm against a reference wavelength of 655 nm using a spectrophotometer. The cells were then washed with PBS-Tween and total cell numbers in each well were determined by reading absorbance at 595 nm after Crystal Violet staining and elution by 1% SDS solution. The measured OD 450-655 readings were corrected for cell number by dividing with the OD595 reading in each well. The inhibition of ICAM-1 expression was calculated at each concentration of test compound by comparison with vehicle control. The 50% inhibitory concentration (IC50) was determined from the resultant concentration-response curve.

[5] = biological target: T2, Recombinant, phosphorylated p38 MAPKγ (MAPK12:Invitrogen) (Homo sapiens, UniProt P53778); assay: p38 MAPKγ enzyme inhibition assay (FRET, Z-LYTE); assay type: biochemical; settings: 2 hr pre-incubation, ATP 100 μM; read-out: Enzyme Inhibition IC50 p38γ
T2 construct: purchased Invitrogen
T2 sequence (P53778 1-367): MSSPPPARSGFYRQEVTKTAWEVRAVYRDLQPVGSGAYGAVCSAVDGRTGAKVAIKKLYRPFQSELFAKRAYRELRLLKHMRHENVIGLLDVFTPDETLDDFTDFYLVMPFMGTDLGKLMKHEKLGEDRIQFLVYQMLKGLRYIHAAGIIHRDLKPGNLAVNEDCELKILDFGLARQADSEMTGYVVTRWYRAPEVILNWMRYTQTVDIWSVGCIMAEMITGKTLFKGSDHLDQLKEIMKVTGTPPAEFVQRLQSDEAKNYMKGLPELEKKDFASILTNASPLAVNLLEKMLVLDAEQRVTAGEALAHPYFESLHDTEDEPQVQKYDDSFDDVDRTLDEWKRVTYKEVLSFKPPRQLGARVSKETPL
Procedure: as §3

[6] = tested on: LPS-induced TNFα release in d-U937 cells; assay: LPS-induced TNFα release in d-U937 cells; assay type: cell-based; settings: Homo sapiens, dU937, 4 h; read-out: LPS/TNFα REC50 d-U937
Procedure: as §1, §2

[7] = tested on: LPS-induced TNFα release in THP-1 cells; assay: LPS-induced TNFα release in THP-1 cells; assay type: cell-based; settings: Homo sapiens, 3 μg/mL LPS, 4 hr
Procedure: Cellular Potency as Determined by LPS-Induced TNFα Release in THP-1 Cells
THP-1 cells, a human monocytic cell line, were stimulated with 3 μg/mL of LPS (from E. Coli; 0111:B4, Sigma) for 4 hr and the supernatant collected for determination of the TNFα concentration by sandwich ELISA (Duo-set, R&D systems). The inhibition of TNFα production was calculated at each concentration by comparison with vehicle control. The 50% inhibitory concentration (IC50) was determined from the resultant concentration-response curve.

SMILES | MTT Assay (Viability) 4 h d-U937 [1] [%] | MTT Assay (Viability) 24 h d-U937 [1] [%] | IC50 [2] [nM] | IC50 [3] [nM] | IC50 [4] [nM] | IC50 [5] [nM] | EC50 [6] [nM] | IC50 [7] [nM]
COCC(=O)Nc1cc(Oc2ccc(NC(=O)Nc3cc(C(C)(C)C)nn3-c3ccc(OC)cc3)c3ccccc23)ccn1 [Example 3, N-(4-((4-(3-(3-(tert-Butyl)-1-(4-methoxyphenyl)-1H-pyrazol-5-yl)ureido)naphthalen-1-yl)oxy)pyridin-2-yl)-2-methoxyacetamide] | −28.4 | −51.5 | 3.3 | 15.5 | 5.7 | 58.2 | 1.9 | 1.5
COc1ccc(-n2nc(C(C)(C)C)cc2NC(=O)Nc2ccc(Oc3ccnc(NC(=O)CO)c3)c3ccccc23)cc1 [Example 4, N-(4-(4-(3-(3-tert-Butyl-1-(4-methoxyphenyl)-1H-pyrazol-5-yl)ureido)naphthalen-1-yloxy)pyridin-2-yl)-2-hydroxyacetamide] | −3.9 | −38.2 | 3 | 4.6 | 4 | 150 | 0.04 | 1.3
COCC(=O)Nc1cc(Oc2ccc(NC(=O)Nc3cc(C(C)(C)C)nn3-c3ccc(O)cc3)c3ccccc23)ccn1 [Example 5, N-(4-((4-(3-(3-(tert-Butyl)-1-(4-hydroxyphenyl)-1H-pyrazol-5-yl)ureido)naphthalen-1-yl)oxy)pyridin-2-yl)-2-methoxyacetamide] | 4.5 | −19.9 | 0.7 | 1.7 | 6.7 | 88.9 | 0.66 | 0.4
COc1ccc(-n2nc(C(C)(C)C)cc2NC(=O)Nc2ccc(Oc3ccnc(NC(=O)NC4CC4)c3)c3ccccc23)cc1 [Example 6, 1-(3-(tert-Butyl)-1-(4-methoxyphenyl)-1H-pyrazol-5-yl)-3-(4-(2-(3-cyclopropylureido)pyridin-4-yloxy)naphthalen-1-yl)urea] | −10.7 | −50.1 | 2.6 | 17.8 | 1 | 51.3 | 19.4 | 1.2
COc1ccc(-n2nc(C(C)(C)C)cc2NC(=O)Nc2ccc(Oc3ccnc(NC(=O)N(C)C)c3)c3ccccc23)cc1 [Example 7, 3-(4-(4-(3-(3-tert-Butyl-1-(4-methoxyphenyl)-1H-pyrazol-5-yl)ureido)naphthalen-1-yloxy)pyridin-2-yl)-1,1-dimethylurea] | −13.3 | −39.1 | 0.1 | 4.1 | 1.9 | 138 | 0.03 | 0.7
COc1ccc(-n2nc(C(C)(C)C)cc2NC(=O)Nc2ccc(Oc3ccnc(NC(=O)N4CCCC4)c3)c3ccccc23)cc1 [Example 8, N-(4-(4-(3-(3-tert-Butyl-1-(4-methoxyphenyl)-1H-pyrazol-5-yl)ureido)naphthalen-1-yloxy)pyridin-2-yl)pyrrolidine-1-carboxamide] | −20.1 | −77.9 | 1.2 | 16.6 | 1.4 | 228 | 0.6 | 1.6
COc1ccc(-n2nc(C(C)(C)C)cc2NC(=O)Nc2ccc(Oc3ccnc(NC(=O)N4CCOCC4)c3)c3ccccc23)cc1 [Example 9, N-(4-((4-(3-(3-tert-Butyl-1-(4-methoxyphenyl)-1H-pyrazol-5-yl)ureido)naphthalen-1-yl)oxy)pyridin-2-yl)morpholine-4-carboxamide] | −5.7 | 18.6 | 1.4 | 2.7 | 2.1 | 203 | 0.6 | 0.5
COc1ccc(-n2nc(C(C)(C)C)cc2NC(=O)Nc2ccc(Oc3ccnc(NC(=O)N4CCN(C)CC4)c3)c3ccccc23)cc1 [Example 10, N-(4-(4-(3-(3-tert-Butyl-1-(4-methoxyphenyl)-1H-pyrazol-5-yl)ureido)naphthalen-1-yloxy)pyridin-2-yl)-4-methyl piperazine-1-carboxamide] | −12.5 | −21.2 | 2.3 | 4.7 | 3.5 | 104 | 1.5 | 1.6
COCC(=O)Nc1cc(Oc2ccc(NC(=O)Nc3cc(C(C)(C)C)nn3-c3ccc(OC)c(OC)c3)c3ccccc23)ccn1 [Example 11, N-(4-(4-(3-(3-tert-Butyl-1-(3,4-dimethoxyphenyl)-1H-pyrazol-5-yl)ureido)naphthalen-1-yloxy)pyridin-2-yl)-2-methoxyacetamide] | −9.3 | −0.8 | 3.6 | 4 | 2.5 | 151 | 0.2 | 0.6
CC(C)(C)c1cc(NC(=O)Nc2ccc(Oc3ccnc(NC(=O)N4CCOCC4)c3)c3ccccc23)n(-c2ccc(O)c(Cl)c2)n1 [Example 12, N-(4-((4-(3-(3-(tert-Butyl)-1-(3-chloro-4-hydroxyphenyl)-1H-pyrazol-5-yl)ureido)naphthalen-1-yl)oxy)pyridin-2-yl)morpholine-4-carboxamide] | −6.2 | −42.9 | 8.4 | 2.7 | 3.2 | 147 | 0.4 | 3.3
CSc1ccc(-n2nc(C(C)(C)C)cc2NC(=O)Nc2ccc(Oc3ccnc(NC(=O)N4CCCC4)c3)c3ccccc23)cc1 [Example 14, N-(4-(4-(3-(3-tert-Butyl-1-(4-(methylthio)phenyl)-1H-pyrazol-5-yl)ureido)naphthalen-1-yloxy)pyridin-2-yl)pyrrolidine-1-carboxamide] | −0.4 | −50.0 | 7.3 | 17 | 1.9 | 400 | 0.6 | 3.2
